Patent US20030207813A1, “Retroviral protease inhibitor combinations” (priority 1995, published 2003)
Converted amounts (≈) assume the structure as drawn.

Key:
HIV-1RF = assay: CEM-T4 cell infection assay, reverse transcriptase readout, isolate RF; format: cell-based; conditions: Human immunodeficiency virus 1, CEM-T4, 168 h, Table 4, CEM-T4 cells, 7 days, read-out: Virus Isolate (EC50 ng/mL) RF
From the text: (§1) RF represents the HIV-1 strain HIV-LRF and RFR represents a mixture of resistant strains obtained by selection of RF against the compound of Example 1. RFR comprises a mixture of viral strains having protease genotypes of G48V (14/40 clones); G48V, V82A (18/40 clones); G48V, L90S (2/40 clones); G48V, 154T, V82A (1/40 clones); G48M (1/40 clones); G48V, Q61H (1/40 clones); V13I, G48V (1/40 clones); G48V, F53L, V82A (1/40 clones); and G48V, V82A, C95Y (1/40 clones). RFR2 represents a mixture of resistant strains obtained by cloning RFR by three rounds of growth at limiting dilution. RFR2 comprises a mixture of viral strains having protease genotypes of G48V, V82A (13/15 clones); G17E, G48V, V82A (1/15 clones); and G48V, V82A, N37D, N88D (1/15 clones). RFRR represents a mixture of resistant strains obtained by selection of RF against the compounds of Examples 1 and 2 and then cloning by three rounds of growth at limiting dilution. RFRR comprises a mixture of viral strains having protease genotypes of G48V, 154T, L63P, V82A (7/9 clones); G48V, 154T, L63P, V82A, N88S (1/9 clones); and G48V, 154T, L63P, G73M, V82A (1/9 clones). SF162 represents the HIV-1 strain SF-162 and SF162R represents a mixture of resistant strains obtained by selection of SF162 against the compound of Example 1. SF162R comprises a mixture of viral strains having protease genotypes of M461, F53L, L63P, A71V, N88D (2/3 clones); and M46I, F53L, L63P, A71V, N88D, Q92R (1/3 clones). 89-959 represents the HIV-1 strain 89-959 and 89-959R represents a mixture of resistant strains obtained by selection of 89-959 against the compound of Example 2. 89-959R comprises a mixture of viral strains having protease genotypes of N88S (4/5 clones); and D25N, T26A, D30N, D37N, R41K, G73D, R87K, N88S (1/4 clones). NL4 represents the HIV-1 strain HIV-1NL4-3. NL4(G48V) represents a strain having a synthetically generated site-directed mutation in the protease from glycine to valine at amino acid position number 48. NL4(I84V) represents a strain having a synthetically generated site-directed mutation in the protease from isoleucine to valine at amino acid position number 84. NL4(R8Q,M46I) represents a strain having synthetically generated site-directed mutations in the protease from arginine to glutamine at amino acid position number 8 and methionine to isoleucine at amino acid position number 46. NL4(P22-538) represents a mixture of resistant strains obtained by selection of HIV-1NL4-3 against the compound of Example 10 after 22 passages comprising protease genotypes M46I, L63P, A71V, V82F, I84V (4/10); M46I, L63P, V82F, I84V (3/10); and M46I, A71V, V82F, I84V (3/10). NL4(P37-538) represents resistant strains obtained by selection of HIV-1NL4-3 against the compound of Example 10 after 37 passages comprising protease genotype M46I, L63P, A71V, 184A. NL4(538/524) represents resistant strains obtained by selection of NL4(P22-538) against the compound of Example 5 after 24 passages comprising protease genotype M46I, L63P, A71V, 184A. NL4(538/P7-AG) represents a mixture of resistant strains obtained by selection of NL4(P22-538) against the compound of Example 12 after 7 passages comprising protease genotypes M46I, L63P, A71V, 184A; and V321, V82I. NL4(538/P24-AG) represents resistant strains obtained by selection of NL4(P22-538) against the compound of Example 12 after 24 passages comprising protease genotype M46I, L63P, A71V, 184A. NLA(P19-003) represents resistant strains obtained by selection of HIV-1^NL4-3 against the compound of Example 9 after 19 passages comprising protease genotype R8K, M46I. NL4(P34-003) represents resistant strains obtained by selection of HIV-1^NL4-3 against the compound of Example 9 after 34 passages comprising protease genotype R8K, M46I, L63P, A71V, L90M.
(§2) The viral isolate resistance results summarized in Tables 4-6 were generated according to the following assay procedure or minor modifications thereof. Assays are performed in 96-well tissue culture plates. […]

[1] = system: RFR (resistant strains selected from RF against Example 1); assay: CEM-T4 cell infection assay, reverse transcriptase readout, resistant isolate RFR; format: cell-based, HIV-1; conditions: Human immunodeficiency virus 1, CEM-T4, 168 h, Table 4, CEM-T4 cells, 7 days, read-out: Virus Isolate (EC50 ng/mL) RFR
From the text: as §1, §2

NL4(538/524) = assay: Viral isolate resistance assay per Markowitz et al., NL4(538/524); format: cell-based, HIV-1; conditions: Human immunodeficiency virus 1; Table 10; NL4(P22-538) selected against Example 5, 24 passages
From the text: as §1, with “NLA(P19-003) represents resistant strains obtained by selection of HIV-1^NL4-3 against the compound of Example 9 after 19 passages comprising protease genotype R8K, M46I. NL4(P34-003) represents resistant strains obtained by selection of HIV-1^NL4-3 against the compound of Example 9 after 34 passages comprising protease genotype R8K, M46I, L63P, A71V, L90M.” left out

NL4(538/P7-AG) = assay: Viral isolate resistance assay per Markowitz et al., NL4(538/P7-AG); format: cell-based, HIV-1; conditions: Human immunodeficiency virus 1; Table 10; NL4(P22-538) selected against Example 12, 7 passages
From the text: as §1, with “NLA(P19-003) represents resistant strains obtained by selection of HIV-1^NL4-3 against the compound of Example 9 after 19 passages comprising protease genotype R8K, M46I. NL4(P34-003) represents resistant strains obtained by selection of HIV-1^NL4-3 against the compound of Example 9 after 34 passages comprising protease genotype R8K, M46I, L63P, A71V, L90M.” left out

HIV-1NL4-3 = assay: microbe, parasite or virus in culture; format: cell-based; conditions: Human immunodeficiency virus 1, NL4
From the text: (§3) RF represents the HIV-1 strain HIV-LRF and RFR represents a mixture of resistant strains obtained by selection of RF against the compound of Example 1. […] RFR2 represents a mixture of resistant strains obtained by cloning RFR by three rounds of growth at limiting dilution. […] RFRR represents a mixture of resistant strains obtained by selection of RF against the compounds of Examples 1 and 2 and then cloning by three rounds of growth at limiting dilution. […] SF162 represents the HIV-1 strain SF-162 and SF162R represents a mixture of resistant strains obtained by selection of SF162 against the compound of Example 1. […] 89-959 represents the HIV-1 strain 89-959 and 89-959R represents a mixture of resistant strains obtained by selection of 89-959 against the compound of Example 2. […] NL4 represents the HIV-1 strain HIV-1NL4-3. NL4(G48V) represents a strain having a synthetically generated site-directed mutation in the protease from glycine to valine at amino acid position number 48. NL4(I84V) represents a strain having a synthetically generated site-directed mutation in the protease from isoleucine to valine at amino acid position number 84. NL4(R8Q,M46I) represents a strain having synthetically generated site-directed mutations in the protease from arginine to glutamine at amino acid position number 8 and methionine to isoleucine at amino acid position number 46.

NL4(G48V) = assay: Viral isolate resistance assay per Markowitz et al., NL4(G48V); format: cell-based, HIV-1; conditions: Human immunodeficiency virus 1, Table 7
From the text: as §3

NL4(I84V) = assay: Viral isolate resistance assay per Markowitz et al., NL4(I84V); format: cell-based, HIV-1; conditions: Human immunodeficiency virus 1, Table 7
From the text: as §3

NL4(R8Q,M46I) = assay: Viral isolate resistance assay per Markowitz et al., NL4(R8Q,M46I); format: cell-based, HIV-1; conditions: Human immunodeficiency virus 1, read-out: Virus Isolate (EC50 nM) NL4(R8O, M46I)
From the text: (§4) RF represents the HIV-1 strain HIV-LRF and RFR represents a mixture of resistant strains obtained by selection of RF against the compound of Example 1. RFR comprises a mixture of viral strains having protease genotypes of G48V (14/40 clones); G48V, V82A (18/40 clones); G48V, L90S (2/40 clones); G48V, 154T, V82A (1/40 clones); G48M (1/40 clones); G48V, Q61H (1/40 clones); V13I, G48V (1/40 clones); G48V, F53L, V82A (1/40 clones); and G48V, V82A, C95Y (1/40 clones). RFR2 represents a mixture of resistant strains obtained by cloning RFR by three rounds of growth at limiting dilution. RFR2 comprises a mixture of viral strains having protease genotypes of G48V, V82A (13/15 clones); G17E, G48V, V82A (1/15 clones); and G48V, V82A, N37D, N88D (1/15 clones). RFRR represents a mixture of resistant strains obtained by selection of RF against the compounds of Examples 1 and 2 and then cloning by three rounds of growth at limiting dilution. RFRR comprises a mixture of viral strains having protease genotypes of G48V, 154T, L63P, V82A (7/9 clones); G48V, 154T, L63P, V82A, N88S (1/9 clones); and G48V, 154T, L63P, G73M, V82A (1/9 clones). SF162 represents the HIV-1 strain SF-162 and SF162R represents a mixture of resistant strains obtained by selection of SF162 against the compound of Example 1. SF162R comprises a mixture of viral strains having protease genotypes of M461, F53L, L63P, A71V, N88D (2/3 clones); and M46I, F53L, L63P, A71V, N88D, Q92R (1/3 clones). 89-959 represents the HIV-1 strain 89-959 and 89-959R represents a mixture of resistant strains obtained by selection of 89-959 against the compound of Example 2. 89-959R comprises a mixture of viral strains having protease genotypes of N88S (4/5 clones); and D25N, T26A, D30N, D37N, R41K, G73D, R87K, N88S (1/4 clones). NL4 represents the HIV-1 strain HIV-1NL4-3. NL4(G48V) represents a strain having a synthetically generated site-directed mutation in the protease from glycine to valine at amino acid position number 48. […]

NL4(P37-538) = assay: Viral isolate resistance assay per Markowitz et al., NL4(P37-538); format: cell-based, HIV-1; conditions: Human immunodeficiency virus 1; Table 9; selected against Example 10, 37 passages; read-out: Virus Isolate (EC50 nM) NL4(P37-538)
From the text: as §1
The viral isolate resistance results summarized in Tables 7-11 were generated according to the assay procedures described by Markowitz et al., Journal of Virology, vol. […]

NL4(538/P24-AG) = assay: Viral isolate resistance assay per Markowitz et al., NL4(538/P24-AG); format: cell-based, HIV-1; conditions: Human immunodeficiency virus 1; Table 10; NL4(P22-538) selected against Example 12, 24 passages
From the text: as §1, with “NLA(P19-003) represents resistant strains obtained by selection of HIV-1^NL4-3 against the compound of Example 9 after 19 passages comprising protease genotype R8K, M46I. NL4(P34-003) represents resistant strains obtained by selection of HIV-1^NL4-3 against the compound of Example 9 after 34 passages comprising protease genotype R8K, M46I, L63P, A71V, L90M.” left out

NLA(P19-003) = assay: Viral isolate resistance assay per Markowitz et al., NLA(P19-003); format: cell-based, HIV-1; conditions: Human immunodeficiency virus 1, read-out: Virus Isolate (EC50 nM) NLA(P19-003)
From the text: as §4

NL4(P34-003) = assay: Viral isolate resistance assay per Markowitz et al., NL4(P34-003); format: cell-based, HIV-1; conditions: Human immunodeficiency virus 1; Table 11; selected against Example 9, 34 passages
From the text: as §4

NL4(P22-538) = assay: Viral isolate resistance assay per Markowitz et al., NL4(P22-538); format: cell-based, HIV-1; conditions: Human immunodeficiency virus 1; Table 9; selected against Example 10, 22 passages; read-out: Virus Isolate (EC50 nM) NL4(P22-538)
From the text: as §1, with “NLA(P19-003) represents resistant strains obtained by selection of HIV-1^NL4-3 against the compound of Example 9 after 19 passages comprising protease genotype R8K, M46I. NL4(P34-003) represents resistant strains obtained by selection of HIV-1^NL4-3 against the compound of Example 9 after 34 passages comprising protease genotype R8K, M46I, L63P, A71V, L90M.” left out

| Structure (SMILES) | EC50 (HIV-1RF) [ng/mL] | EC50 [1] [ng/mL] | EC50 (NL4(538/524)) [nM] | EC50 (NL4(538/P7-AG)) [nM] | EC90 (HIV-1NL4-3; Table 7, EC90, read-out: Virus Isolate (EC90 nM) NL4) [nM] | EC50 (HIV-1NL4-3; Table 8, read-out: Virus Isolate (EC50 nM) NL4) [nM] | EC90 (NL4(G48V)) [nM] | EC90 (NL4(I84V)) [nM] | EC50 (NL4(R8Q,M46I)) [nM] | EC50 (NL4(P37-538)) [nM] | EC50 (NL4(538/P24-AG)) [nM] | EC50 (NLA(P19-003)) [nM] | EC50 (NL4(P34-003)) [nM] | EC50 (NL4(P22-538)) [nM] |
| --- | --- | --- | --- | --- | --- | --- | --- | --- | --- | --- | --- | --- | --- | --- |
| COc1ccc(S(=O)(=O)N(CC(C)C)C[C@@H](O)[C@H](Cc2ccccc2)NC(=O)[C@H](C)CS(C)(=O)=O)cc1 (relative stereo) [Example 4, [1S-[1R*(R*),2S*]]-N-[2-hydroxy-3-[N^1-(2-methylpropyl)-N-(4-methoxyphenylsulfonyl)amino]-1-(phenylmethyl)propyl]-2-methyl-3-(methylsulfonyl)propanamide] | 10 (≈ 18 nM) | 0.4 (≈ 0.721 nM) | – | – | – | – | – | – | – | – | – | – | – | – |
| COc1ccc(S(=O)(=O)N(CC(C)C)C[C@@H](O)[C@H](Cc2ccccc2)NC(=O)OCc2cncnc2)cc1 [Example 3, [2R-hydroxy-3-[[(4-methoxyphenyl)sulfonyl](2-methylpropyl)amino]-1S-(phenylmethyl)propyl]carbamic acid 5-pyrimidylmethyl ester] | 5 (≈ 9.21 nM) | 2 (≈ 3.69 nM) | – | – | – | – | – | – | – | – | – | – | – | – |
| CC(C)c1nc(CN(C)C(=O)N[C@H](C(=O)N[C@@H](Cc2ccccc2)C[C@H](O)[C@H](Cc2ccccc2)NC(=O)OCc2cncs2)C(C)C)cs1 [Example 10] | – | – | 6400 | 6400 | 80 | 80 | 160 | 800 | 240 | 6400 | 6400 | 400 | 400 | 1600 |
